Results taken from patent publication US20100292185A1, “BETA-LACTAMASE INHIBITORS” (priority 2009, published 2010).

What was measured:
[1] = system: K. pneumoniae expressing the Class A Extended Spectrum Beta-Lactamase (ESBL) CTX-M-15; assay: In vitro antibacterial assay of β-lactamase inhibition (broth microdilution MIC), K. pneumoniae CTX-M-15; assay type: cell-based; settings: in presence of Ceftazidime 8 μg/ml (Examples 1-56)
Method in brief: (§1)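 MIC read by eye after 16–20 h at 37° C, with CLSI-standard inocula of strains grown 3–5 h in CAMHB containing 50 μg/mL ampicillin. Compounds tested in final 2-fold dilutions from 8 to 0.015 μg/mL together with a β-lactam antibiotic.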

[2] = system: E. coli expressing the Class A ESBL SHV-5; assay: In vitro antibacterial assay of β-lactamase inhibition (broth microdilution MIC), E. coli SHV-5; assay type: cell-based; settings: in presence of Ceftazidime 8 μg/ml (Examples 1-56)
Method in brief: as §1

[3] = system: P. aeruginosa expressing the Class B metallo β-lactamase VIM-2; assay: In vitro antibacterial assay of β-lactamase inhibition (broth microdilution MIC), P. aeruginosa VIM-2; assay type: cell-based; settings: in presence of Ceftazidime 16 μg/mL (Examples 1-56)
Method in brief: as §1

[4] = biological target: T1, KPC-2 β-lactamase (Klebsiella pneumoniae, UniProt Q9F663); assay: β-lactamase enzyme inhibition assay (nitrocefin substrate), KPC-2; assay type: biochemical; settings: nitrocefin 100 μM, 37° C., PBS pH 7.0; read-out: KPC-2 IC50
T1 construct: expressed as native untagged proteins; made in house; host or cells: E. coli BL21(DE3)
Method in brief: (§2)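 Native untagged enzymes were expressed in E. coli BL21(DE3) and purified by cation exchange and gel filtration. Compounds (100–0.005 μM in PBS pH 7.0) were preincubated with enzyme for 10 min at 37 °C, then 100 μM nitrocefin (final) was added. IC50 was derived from the maximum hydrolysis rate at 486 nm, read kinetically for 10 min, relative to uninhibited controls.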

[5] = biological target: T2, VIM-2 metallo β-lactamase (Pseudomonas aeruginosa, UniProt Q9K2N0); assay: β-lactamase enzyme inhibition assay (nitrocefin substrate), VIM-2; assay type: biochemical; settings: nitrocefin 100 μM, 37° C., PBS pH 7.0; read-out: VIM-2 IC50
T2 construct: made in house
Method in brief: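 VIM-2 was expressed untagged in E. coli BL21(DE3) and purified by two Q sepharose anion-exchange runs plus gel filtration to >90% purity. Compounds at 100–0.005 μM in PBS pH 7.0 were preincubated with enzyme for 10 min at 37° C, then nitrocefin was added at 100 μM final. Hydrolysis was followed kinetically at 486 nm for 10 min; IC50 is the concentration halving the initial rate relative to no-inhibitor wells.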

[6] = system: K. pneumoniae expressing the Class A carbapenemase KPC-2; assay: microbe, parasite or virus in culture; assay type: cell-based; settings: in presence of Ceftazidime 8 μg/ml (Examples 1-56)
Method in brief: as §1

[7] = biological target: T3, p99 AmpC β-lactamase (Enterobacter cloacae, UniProt P05364); assay: β-lactamase enzyme inhibition assay (nitrocefin substrate), P99 AmpC; assay type: biochemical; settings: nitrocefin 100 μM, 37° C., PBS pH 7.0; read-out: P99 AmpC IC50
T3 construct: expressed as native untagged proteins; made in house; host or cells: E. coli BL21(DE3)
Method in brief: as §2

[8] = biological target: T4, SHV-5 β-lactamase (Klebsiella pneumoniae, UniProt P0A3M1); assay: β-lactamase enzyme inhibition assay (nitrocefin substrate), SHV-5; assay type: biochemical; settings: nitrocefin 100 μM, 37° C., PBS pH 7.0; read-out: SHV-5 IC50
T4 construct: expressed as native untagged proteins; made in house; host or cells: E. coli BL21(DE3)
Method in brief: as §2

[9] = biological target: T5, CTX-M15 β-lactamase (Escherichia coli, UniProt Q9EXV5); assay: β-lactamase enzyme inhibition assay (nitrocefin substrate), CTXM-15; assay type: biochemical; settings: nitrocefin 100 μM, 37° C., PBS pH 7.0; read-out: CTXM-15 IC50
T5 construct: expressed as native untagged proteins; made in house; host or cells: E. coli BL21(DE3)
Method in brief: as §2

[10] = system: E. cloacae expressing the Class C P99+; assay: In vitro antibacterial assay of β-lactamase inhibition (broth microdilution MIC), E. cloacae P99+; assay type: cell-based; settings: in presence of Ceftazidime 8 μg/ml (Examples 1-56)
Method in brief: as §1

[11] = biological target: T6, OXA-23 β-lactamase (Acinetobacter baumannii, UniProt Q9L4P2); assay: β-lactamase enzyme inhibition assay (nitrocefin substrate), OXA-23 crude extract; assay type: biochemical; settings: nitrocefin 100 μM, 37° C., PBS pH 7.0; read-out: OXA-23 IC50
T6 construct: crude β-lactamase extracts were prepared from 20 ml overnight cultures; endogenous in cells; host or cells: Acinetobacter baumannii cells containing OXA-23 (crude freeze-thaw extract)
Method in brief: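 Crude enzyme came from freeze-thaw extracts of mid-log OXA-23-carrying A. baumannii grown in MH-II broth at 37° C. Inhibitors (100–0.005 μM in PBS pH 7.0) were preincubated with the enzyme for 10 min at 37° C, then 100 μM nitrocefin (final) was added and read kinetically at 486 nm for 10 min. IC50 was taken from initial hydrolysis rates relative to uninhibited controls.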

T3 sequence (P05364 21-381): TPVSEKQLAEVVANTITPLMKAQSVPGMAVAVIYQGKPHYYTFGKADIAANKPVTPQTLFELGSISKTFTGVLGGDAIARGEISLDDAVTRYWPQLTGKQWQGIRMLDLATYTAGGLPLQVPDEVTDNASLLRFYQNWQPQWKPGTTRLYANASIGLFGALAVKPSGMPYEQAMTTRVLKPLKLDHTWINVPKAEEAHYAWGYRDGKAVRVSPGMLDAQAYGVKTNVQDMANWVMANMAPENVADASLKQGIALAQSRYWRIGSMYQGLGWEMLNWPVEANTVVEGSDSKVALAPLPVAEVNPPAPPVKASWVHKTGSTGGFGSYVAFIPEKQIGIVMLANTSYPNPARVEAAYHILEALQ
T1 sequence (Q9F663 25-293 limits assumed): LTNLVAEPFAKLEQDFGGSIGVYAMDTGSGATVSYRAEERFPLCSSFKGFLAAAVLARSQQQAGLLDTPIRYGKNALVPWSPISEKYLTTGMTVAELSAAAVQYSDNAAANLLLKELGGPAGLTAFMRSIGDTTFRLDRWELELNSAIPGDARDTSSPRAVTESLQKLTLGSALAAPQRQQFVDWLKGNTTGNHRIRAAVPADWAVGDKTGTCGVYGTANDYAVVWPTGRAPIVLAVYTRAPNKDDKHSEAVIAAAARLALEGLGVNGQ
T5 sequence (Q9EXV5 entry or part of it): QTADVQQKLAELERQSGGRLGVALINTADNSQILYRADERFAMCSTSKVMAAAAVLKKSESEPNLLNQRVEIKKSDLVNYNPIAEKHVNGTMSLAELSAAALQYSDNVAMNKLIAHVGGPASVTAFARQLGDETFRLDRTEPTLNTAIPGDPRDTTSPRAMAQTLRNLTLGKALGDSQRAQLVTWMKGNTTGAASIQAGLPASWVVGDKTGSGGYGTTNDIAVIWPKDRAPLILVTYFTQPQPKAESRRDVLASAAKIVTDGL
T6 sequence (Q9L4P2 18-273): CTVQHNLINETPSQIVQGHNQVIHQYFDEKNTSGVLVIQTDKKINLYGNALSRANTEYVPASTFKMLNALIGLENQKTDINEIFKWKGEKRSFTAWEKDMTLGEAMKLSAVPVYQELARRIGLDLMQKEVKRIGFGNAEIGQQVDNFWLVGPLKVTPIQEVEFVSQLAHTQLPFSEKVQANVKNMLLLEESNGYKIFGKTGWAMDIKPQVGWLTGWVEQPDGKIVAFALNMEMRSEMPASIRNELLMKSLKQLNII
T4 sequence (P0A3M1 22-286): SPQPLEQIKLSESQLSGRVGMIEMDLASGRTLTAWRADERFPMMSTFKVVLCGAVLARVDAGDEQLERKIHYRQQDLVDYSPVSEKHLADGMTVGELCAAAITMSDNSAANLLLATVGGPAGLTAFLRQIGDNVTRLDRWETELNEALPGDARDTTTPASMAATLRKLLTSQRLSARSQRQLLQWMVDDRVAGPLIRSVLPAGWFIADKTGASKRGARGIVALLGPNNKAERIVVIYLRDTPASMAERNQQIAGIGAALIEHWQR

| Substance | MIC of example compound, K. pneumoniae CTX-M-15 [1] [µg/mL] | MIC of example compound, E. coli SHV-5 [2] [µg/mL] | MIC of example compound, P. aeruginosa VIM-2 [3] [µg/mL] | IC50 [4] [nM] | IC50 [5] [nM] | MIC of example compound, K. pneumoniae KPC-2 [6] [µg/mL] | IC50 [7] [nM] | IC50 [8] [nM] | IC50 [9] [nM] | MIC of example compound, E. cloacae P99+ [10] [µg/mL] | IC50 [11] [nM] |
| --- | --- | --- | --- | --- | --- | --- | --- | --- | --- | --- | --- |
| (1R)-[3-{(2-hydroxy-ethylamino)-methyl}-benzoylamino]-(3-carboxy-2-hydroxy)benzyl-methylboronic acid formate [Example 43] | 0.5 | 2 | >8 | 70 | 184 | <0.015 | 9 | 4 | 12 | 0.5 | 38 |
| (2R)-3-[(2-[(2-chloro-pyridin-4-yl-acetyl)-amino]-2-borono-ethyl]-2-hydroxy-benzoic acid hydrochloride [Example 47] | 0.25 | 0.25 | >8 | 2 | > 1000 | 0.03 | 5 | 1 | 2 | 1 | 132 |
